Measurements published in patent US8183228B2, “Anticoagulant antithrombotic dual inhibitors comprising a biotin label” (MSD OSS B.V. Netherlands, priority 2005, dated 2012).
Where a name gives a salt, the structure may show the parent alone.

What was measured:
[1] = tested on: guinea pig platelet aggregation; assay: In vitro neutralisation of inhibition of guinea pig platelet aggregation by avidin; assay type: cell-based; conditions: avidin added to ADP-induced guinea pig platelet aggregation assay
Protocol: 2.1 In Vitro Neutralization of the Antithrombotic Activity A. In Vitro Neutralisation of Inhibition of Platelet Aggregation (Pre-Incubation of Compound with Avidin)
(§1) As performed in above described protocol for ADP-induced platelet aggregation. […] Before inducing the guinea pig platelet aggregation by adding ADP, compound and avidin (from egg white, Sigma) in different concentrations were pre-incubated for 2 minutes at room temperature (FIGS. 1 and 2).
B. In Vitro Neutralisation of Inhibition of Platelet Aggregation
(After Delayed Addition of Avidin)
(§2) As performed in above described protocol for ADP-induced platelet aggregation. […] After 7 minutes the detection of platelet aggregation was interrupted and avidin (from egg white, Sigma) in different concentrations was added at t=9 min. Within 1 minute the detection of the platelet aggregation was resumed (FIGS. 3 and 4).

[2] = tested on: guinea pig platelet rich plasma; assay: Inhibition of guinea pig platelet aggregation induced by ADP (PRP); assay type: cell-based; conditions: for IC50: guinea pig PRP
Text: 1.1 In Vitro Test for Inhibition of Guinea Pig Platelet Aggregation Induced by ADP
Addition of adenosine diphosphate (ADP) to human or guinea pig platelet rich plasma (PRP) in vitro induces platelet aggregation. This aggregation can be assessed by measuring the change in optical density (OD) of the PRP. The following in vitro test was used to evaluate the test compound for interference with the ADP-induced aggregation of guinea pigs.
Platelet rich plasma (PRP): Free-flowing blood is taken from a healthy volunteer or a guinea pig and collected in 0.1 volume sodium citrate.2H2O, 3.8% in distilled H2O (w/v). The final concentration is 0.38% sodium citrate. The citrated blood is centrifuged at 1,600 N/kg (160 g, i.e., 900 rpm in a Hettich Rotanta/AP at room temperature. After 15 minutes centrifugation is discontinued with brake turned off, and the supernatant (=PRP) is collected. A fresh solution of ADP (analytical grade), 50 μM in 0.9% NaCl in MQ water, is used immediately.
The platelets in the supernatant (PRP) are counted using a Sysmex blood cell counter and the supernatant is diluted with PPP (platelet poor plasma) to obtain a PRP containing approximately 400,000±50,000 plt/mL. PRP should stabilize at room temperature for at least 20 min but not longer than 3 h.
150 μL PRP is pipetted into a well of the microplate. 30 μL test compound in a range of concentrations (7 concentrations per compound) or vehicle is added and the microplate is placed in the Labsystems iEMS reader MF at 37° C. The optical density (OD620) is then measured at 620 nm. After shaking for 2 minutes in the reader (1,000 rpm), the OD is measured for the second time. This is to verify the stability of the platelets (absence of spontaneous platelet aggregation). Then, 20 μL of 50 μM ADP solution is added and the OD is kinetically measured every minute for 14 minutes at 620. Between two measurements, the plate is shaking for 40 seconds at 1,000 rpm. Each test compound is investigated in at least 2 experiments using PRP from different volunteers.
The mean OD at each compound concentration (including vehicle) is calculated at t=0 min and t=10 min. The percentage inhibition at each concentration is calculated using the formula: […]
The IC50 of the test compound is the concentration at which the ADP-induced platelet aggregation is reduced by 50%. For this, the percentage inhibition values are plotted against compound concentration and the IC50 is calculated using Graphpad Prism 3.0 (with variable slope).
as §1

[3] = Bleeding in guinea pigs and its stop by avidin; assay type: in vivo, guinea pig; conditions: guinea pigs
[4] = tested on: human platelet aggregation; assay: In vitro neutralisation of inhibition of human platelet aggregation by avidin; assay type: cell-based; conditions: avidin added 9 minutes after ADP-induced aggregation, human platelets
Protocol: as §2
In FIG. 5, the effect of avidin on the inhibition of human platelet aggregation by compound 17 is shown (addition of avidin 9 minutes after ADP-induced platelet aggregation).

Compound	effect of avidin on inhibition of guinea pig platelet aggregation (neutralisation of anti-GPIIbIIIa activity) [1]	concentration at which maximal inhibition of the guinea pig platelet aggregation is achieved [2]	IC50 [2]	bleeding induced after administration [3]	effect of avidin on induced bleeding ([3]; avidin i.v. 10 mg/kg)	effect of avidin on inhibition of human platelet aggregation [4]
CO[C@H]1O[C@H](COS(=O)(=O)O)[C@@H](O[C@@H]2O[C@@H](C(=O)O)[C@@H](O[C@H]3O[C@H](COS(=O)(=O)O)[C@@H](O[C@@H]4O[C@H](C(=O)O)[C@@H](O[C@H]5O[C@H](COS(=O)(=O)O)[C@@H](OCCOCCOCCOCCNC(=O)[C@H](CCCCNC(=O)CCCC[C@@H]6SC[C@@H]7NC(=O)N[C@@H]76)NC(=O)COCCOCCOCCOCCNC(=O)c6cccc(S(=O)(=O)N[C@@H](Cc7ccc(OCCCCC8CCNCC8)cc7)C(=O)O)c6)[C@H](OC)[C@H]5OC)[C@H](OC)[C@H]4OC)[C@H](OS(=O)(=O)O)[C@H]3OS(=O)(=O)O)[C@H](OC)[C@H]2OC)[C@H](OS(=O)(=O)O)[C@H]1OS(=O)(=O)O [Compound 10, sodium salt]	immediate restoration of platelet aggregation	450 nM	225 nM			
CO[C@H]1O[C@H](COS(=O)(=O)O)[C@@H](O[C@@H]2O[C@@H](C(=O)O)[C@@H](O[C@H]3O[C@H](COS(=O)(=O)O)[C@@H](O[C@@H]4O[C@H](C(=O)O)[C@@H](O[C@H]5O[C@H](COS(=O)(=O)O)[C@@H](OCCOCCOCCOCCNC(=O)[C@H](CCCCNC(=O)C[C@H](NC(=O)CCCC[C@@H]6SC[C@@H]7NC(=O)N[C@@H]76)C(=O)O)NC(=O)COCCOCCOCCOCCNC(=O)c6cccc(S(=O)(=O)N[C@@H](Cc7ccc(OCCCCC8CCNCC8)cc7)C(=O)O)c6)[C@H](OC)[C@H]5OC)[C@H](OC)[C@H]4OC)[C@H](OS(=O)(=O)O)[C@H]3OS(=O)(=O)O)[C@H](OC)[C@H]2OC)[C@H](OS(=O)(=O)O)[C@H]1OS(=O)(=O)O [Compound 17, sodium salt]			66 nM	dose-dependent bleeding	stopped immediately	full restoration of human platelet aggregation
CO[C@H]1O[C@H](COS(=O)(=O)O)[C@@H](O[C@@H]2O[C@@H](C(=O)O)[C@@H](O[C@H]3O[C@H](COS(=O)(=O)O)[C@@H](O[C@@H]4O[C@H](C(=O)O)[C@@H](O[C@H]5O[C@H](COS(=O)(=O)O)[C@@H](OCCOCCOCCOCCNC(=O)COCCOCCOCCOCCNC(=O)c6cccc(S(=O)(=O)N[C@@H](Cc7ccc(OCCCCC8CCNCC8)cc7)C(=O)O)c6)[C@H](OC)[C@H]5OC)[C@H](OC)[C@H]4OC)[C@H](OS(=O)(=O)O)[C@H]3OS(=O)(=O)O)[C@H](OC)[C@H]2OC)[C@H](OS(=O)(=O)O)[C@H]1OS(=O)(=O)O [Compound 12, sodium salt, reference compound]	cannot be restored	225 nM	127 nM			
